Reference: patent US20260217716A1, “ANDROGEN RECEPTOR MODULATORS AND METHODS FOR THEIR USE” (Capulus Therapeutics, LLC, priority 2022, published 2026)
Positions count from the first letter of the chain named.

Key:
human AR = biological target: T1, human AR (Homo sapiens, UniProt P10275); assay: Indigo Biosciences AR reporter cell assay (AR inhibition, antagonist mode); assay type: cell-based; conditions: Table 2; luciferase reporter cells, 24 hr, EC80 of agonist 5α-dihydro-11-keto testosterone; read-out: AR Inhibition Indigo Cell Based: Avg IC50
T1 construct: Reporter Cells used in these assays expressed a native receptor (AR)
T1 sequence (P10275 1-920): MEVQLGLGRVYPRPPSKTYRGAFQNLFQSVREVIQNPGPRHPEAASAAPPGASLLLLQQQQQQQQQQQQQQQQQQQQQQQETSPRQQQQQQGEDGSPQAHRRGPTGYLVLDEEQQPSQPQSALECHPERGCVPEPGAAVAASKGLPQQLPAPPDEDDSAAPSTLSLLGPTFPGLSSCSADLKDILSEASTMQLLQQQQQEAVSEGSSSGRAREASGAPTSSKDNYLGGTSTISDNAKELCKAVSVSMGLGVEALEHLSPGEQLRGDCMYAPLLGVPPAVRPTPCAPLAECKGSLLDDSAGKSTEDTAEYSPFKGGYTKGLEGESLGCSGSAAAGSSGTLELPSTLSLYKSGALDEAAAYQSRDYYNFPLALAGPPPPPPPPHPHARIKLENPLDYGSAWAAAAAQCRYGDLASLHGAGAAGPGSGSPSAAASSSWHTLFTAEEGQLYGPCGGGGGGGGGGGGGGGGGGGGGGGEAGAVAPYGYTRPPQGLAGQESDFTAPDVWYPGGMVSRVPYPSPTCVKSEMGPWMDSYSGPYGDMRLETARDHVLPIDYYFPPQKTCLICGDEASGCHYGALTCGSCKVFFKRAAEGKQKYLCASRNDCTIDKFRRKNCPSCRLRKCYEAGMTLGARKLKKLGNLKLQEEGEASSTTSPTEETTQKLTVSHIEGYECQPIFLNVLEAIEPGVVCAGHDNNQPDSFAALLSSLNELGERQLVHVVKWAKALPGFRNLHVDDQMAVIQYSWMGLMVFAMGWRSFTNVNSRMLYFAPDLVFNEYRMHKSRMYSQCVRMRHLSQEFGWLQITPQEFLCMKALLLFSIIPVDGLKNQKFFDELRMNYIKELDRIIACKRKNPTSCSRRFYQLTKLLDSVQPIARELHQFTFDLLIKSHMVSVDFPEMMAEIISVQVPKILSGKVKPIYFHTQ
Protocol: The aim of this study was to evaluate compounds 1-12 and the comparative compounds 1-2 for inhibition activities against human AR. Reporter Cells used in these assays expressed a native receptor (AR). The reporter gene, firefly luciferase, is functionally linked to an upstream receptor-specific genetic response element (GRE). Reporter cells were treated with eight concentrations, starting at 50 μM and following with 3.17-fold dilutions. Single treatment concentration was performed (n=1). Assay performance was validated using the reference antagonist hydroxy flutamide. • Step 1: A suspension of reporter cells was prepared in Cell Recovery Medium (CRM). Reporter cells were first supplemented with 2×-EC80 concentration of the reference agonist, 5α-dihydro-11-keto testosterone, then 100 μl of the Reporter Cell suspension was dispensed into wells of a white 96-well assay plate. • Step 2: Test compound master stocks were diluted in DMSO to generate solutions at ‘500×-concentration’ relative to the final treatment concentration and diluted directly into INDIGO's Compound Screening Medium (CSM; containing charcoal-stripped FBS) to generate ‘2×-concentration’ treatment media. This was diluted into the wells to the final concentration. Assay plates were incubated at 37° C., 5% CO2 and ~70% humidity for 24 hr. • Step 3: Following the incubation period, wells were rinsed once with Live Cell Multiplex (LCM) Buffer, then LCM substrate was added. Following incubation at room temperature for 15 min, LCM substrate was discarded and 100 μL/well of luciferase detection reagent was added. Subsequently, fluorescence was measured to determine the relative number of live cells per assay well. RLU values were quantified after a 10 min incubation period at room temperature to determine nuclear receptor activities.

Human androgen receptors = biological target: T2, Human androgen receptors (Homo sapiens, UniProt P10275, T878A); assay: Biochemical AR LBD antagonism (Eurofins AR radioligand binding assay); conditions: Table 4; read-out: Biochemical AR LBD Antagonism: Average IC50
T2 construct: Human androgen receptors obtained from human LNCaP cells were used; host or cells: human LNCaP cells
T2 sequence (P10275 1-920 T878A): T1 sequence (P10275 1-920) with T878A
Protocol: Human androgen receptors obtained from human LNCaP cells were used in modified HEPES buffer pH 7.4. A 70 μg‡ aliquot was incubated with 0.5 nM [3H] Methyltrienolone for 20 h at 4° C. Non-specific binding was estimated in the presence of 1 μM testosterone. Receptors were filtered and washed, the filters were then counted to determine [3H] Methyltrienolone specifically bound. Compounds were screened at 10 μM.
Furthermore, as noted earlier, most clinically relevant AR inhibitors target the ligand binding domain (LBD) of the androgen receptor, and these inhibitors can lose efficacy due to point mutations in the LBD. Given that the AR protein contains multiple sub-domains, targeting other domains is an attractive approach for new inhibitors. […] Therefore, the compounds as described herein may be interacting with other subdomains in the AR protein, namely the N-terminal domain.

[1] = Human liver microsome stability; assay type: in vitro ADME; conditions: Table 6, human liver microsomes, 1 μM
Protocol: (§1) Preincubation mixture 2.5 μL Test Cpd. +75 μL Liver microsomes (human or mouse source) @ 3.33 mg/mL+85 µL of 100 mM potassium phosphate buffer (preincubate for 10 min @ 37° C.). Incubation mixture 62 μL of cofactor (2.85 mM)+Remaining incubation mixture (Incubated for 60 min @ 37° C.). Sample preparation 25 μL incubation mixture+200 μL of acetonitrile containing internal standard+Vortex 5 min @ 1200 rpm+Centrifuge 10 min @ 4000 rpm. Supernatant diluted 2-fold with water and injected on LC-MS/MS.

[2] = Mouse liver microsome stability; assay type: in vitro ADME; conditions: Table 6, mouse liver microsomes, 1 μM
Protocol: as §1

COc1cc([C@@H](C)Nc2ccc3nnc(C(F)(F)F)n3n2)ccc1F [Compound 6, (R)—N-(1-(4-fluoro-3-methoxyphenyl)ethyl)-3-(trifluoromethyl)-[1,2,4]triazolo[4,3-b]pyridazin-6-amine]
IC50 (human AR): 51 to 500 nM | IC50 (Human androgen receptors): > 501 nM | Human LM: Rem @ 60 min [1]: +++ (>60.1: “+++”) | Mouse LM: Rem @ 60 min [2]: + (0-30: “+”)
